Assay results published in PMC10578352, “Identification of a Protein Arginine Methyltransferase 7 (PRMT7)/Protein Arginine Methyltransferase 9 (PRMT9) Inhibitor” (Journal of Medicinal Chemistry, 2023).

Target: T1, SMYD3/KMT3E (Homo sapiens, UniProt Q9H7B4)
T1 construct: the human recombinant SMYD3 (residues 2–428, C-terminus); C-terminal His-tag; His (C); purchased Reaction Biology Corporation
T1 sequence (Q9H7B4 2-428): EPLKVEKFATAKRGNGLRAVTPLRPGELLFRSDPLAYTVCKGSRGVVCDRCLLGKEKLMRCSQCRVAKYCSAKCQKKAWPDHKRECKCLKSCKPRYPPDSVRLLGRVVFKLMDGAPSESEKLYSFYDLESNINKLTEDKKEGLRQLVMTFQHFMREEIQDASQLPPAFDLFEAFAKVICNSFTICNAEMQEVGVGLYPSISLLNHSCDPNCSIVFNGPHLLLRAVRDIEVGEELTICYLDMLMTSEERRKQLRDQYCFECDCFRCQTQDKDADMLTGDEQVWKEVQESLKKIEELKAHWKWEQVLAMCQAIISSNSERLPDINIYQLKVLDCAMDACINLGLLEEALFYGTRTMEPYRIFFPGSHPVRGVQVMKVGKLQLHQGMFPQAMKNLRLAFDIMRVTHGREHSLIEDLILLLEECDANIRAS
Assay: HotSpot KMT activity assay, SMYD3
Type: biochemical
Settings: read-out: % SMYD3 residual activity
Source text: ; MW = 35.4 kDa; Genbank Accession # NM_018489), or the human recombinant EZH2-containing five-member polycomb repressive complex 2 (including EZH2 residues 2–746, AEBP2 2–517, EED 2–441, RbAp48 2–425, SUZ12 2–739; all full-length; with N-terminal Flag-tag on EED and N-terminal His-tag on all others; MW = 333.8 kDa; Genbank Accession # NM_001203247, NM_001114176, NM_003797, NM_005610, NM_015355), or the human recombinant G9a (residues 913–1193, C-terminus; with an N-terminal His-tag; MW = 34.6 kDa; Genbank Accession # NM_006709.3), or the human recombinant MLL1 complex (including MLL1 residues 3745–3969, C-terminus, WDR5 22–334, C-terminus, RbBP5 1–538, C-terminus, ASH2L 2–534, C-terminus, DPY-30 1–99, C-terminus; N-terminal His-tag on all subunits; MW = 212.0 kDa; Genbank Accession # NM_005933, NM_017588, NM_005057, NM_001105214, NM_0325742), or the human recombinant SET7/9 (residues 2–366, C-terminus; with a N-terminal GST-tag and a C-terminal His-tag; MW = 68.5 kDa; Genbank Accession # NM_030648), or the human recombinant SMYD3 (residues 2–428, C-terminus; C-terminal His-tag; MW = 50.1 kDa; Genbank Accession # NM_001167740), or the human recombinant SUV39H2 (residues 46–410, C-terminus; N-terminal fusion protein with a C-terminal His-tag; MW = 98.8 kDa; GenBank Accession No. NM_001193424), or the human recombinant DOT1L (residues 1–416; N-terminal GST-tag; MW = 80.0 kDa; Genbank Accession # NM_032482) was added to a solution of the proper substrate (oligo nucleosomes for ASH1L, MLL1 complex, and DOT1L, final concentration 0.05 mg/mL; core histone for EZH2 complex and SET7/9, final concentration 0.05 mg/mL; histone H3 for SUV39H2, final concentration 5 μM; histone H3 1–21 for G9a, final concentration 2.5 μM) in freshly prepared reaction buffer (50 mM Tris-HCl (pH 8.5), 5 mM MgCl2, 50 mM NaCl, 1 mM DTT, 1 mM PMSF, 1% DMSO) and gently mixed. […] After incubation for 60 min at 30 °C, the reaction mixture was delivered to filter paper for detection (as assessed by scintillation). […] Values obtained for each compound are mean ± SD determined for two separate experiments.

## COC(=O)c1cc(O)c2cc(NC(=O)NCCCNC(=N)NC[C@H]3O[C@@H](n4cnc5c(N)ncnc54)[C@H](O)[C@@H]3O)cc(C(F)(F)F)c2c1 [1j, Methyl 6-(3-(3-(3-(((2R,3S,4R,5R)-5-(6-Amino-9H-purin-9-yl)-3,4-dihydroxytetrahydrofuran-2-yl)methyl)guanidino)propyl)ureido)-4-hydroxy-8-(trifluoromethyl)-2-naphthoate]
10 μM
  remaining activity at 10 µM: 99.1 ± 1.41%
100 μM
  remaining activity at 100 µM: 74.2 ± 1.8%
